Patent US7432392B2, “Ester derivatives and medical use thereof” (Japan Tobacco Inc., priority 2003, dated 2008)
pIC50: −log10 of the molar value.

The compounds below were run on apolipoprotein B secretion from HepG2 cells (assay: Inhibition of apolipoprotein B secretion from HepG2 cells). Settings: Homo sapiens, about 20 hours incubation, apo B in supernatant by ELISA.
Type: cell-based
Method: HepG2 cells were suspended in Dulbecco's Modified Eagle's Medium (DMEM) (containing 10% fetal bovine serum, 100 units/mL penicillin and 100 μg/mL streptomycin), and placed on a 96-well plate (4×10^4 cells/well), then incubated for 24 hours. After removal of the medium, DMEM was replaced by a medium containing a sample dissolved in DMSO or a medium containing DMSO (concentration of DMSO: 0.5%) and incubation was further performed for about 20 hours, after which the supernatant was recovered, and concentration of apo B in the supernatant was assayed by Enzyme-Linked Immunosorbent Assay (ELISA)
ELISA was carried out as follows. Anti-human apo B monoclonal antibody (0.5 μg/well) diluted with a 50 mM sodium carbonate/sodium bicarbonate buffer was placed in a 96-well plate for ELISA, and allowed to stand at room temperature for 15 hours. After washing the plate, a blocking solution (250 μL/well) was placed in the well, and allowed to stand at room temperature for 1.5 hours. After washing the plate, a standard and a sample (100 μL/well) were placed in the well and allowed to stand at room temperature for 1.5 hours. The standard was prepared by adjusting the concentration of the purified human apo B with the DMEM to 0 to 250 ng/mL. After washing the plate, an anti-human apo B polyclonal antibody labeled with a horse radish peroxidase which was diluted in 1:1000 with DEME (100 μL/well) was added, and allowed to stand at room temperature for 1.5 hours. After washing the plate, 2,2-azinobis(3-ethylbenzothiazoline-6-sulfonic acid) solution (100 μL/well) was placed in the well, and allowed to stand at room temperature for 0.5 hour. The reaction was stopped by addition of 2% oxalic acid (100 μL/well), and absorbency at 405 nm was measured. Concentration of apo B in the sample was calculated on the basis of a standard curve of the standard. Inhibition rate (%) was calculated from the assayed values in accordance with the following equation. Inhibition rate (%)=100×(1 minus (concentration of apo B in sample group/concentration of apo B in DMSO group).
Based on the above equation, 50% inhibition concentration (IC50) was determined.

pIC50	Structure (SMILES)
> 6.00	CCOC(=O)C(COC(=O)Cc1ccc(NC(=O)c2ccccc2-c2ccc(C(F)(F)F)cc2)c(OC(=O)CC)c1)(C(=O)OCC)c1ccccc1 [Example 1-2]

The compounds below were run against T1, Microsomal triglyceride transfer protein (MTP) from bovine liver (Bos taurus, UniProt P55156) (assay: Inhibition of interliposomal triglyceride (TG) transfer activity by MTP). Settings: MTP-mediated TG transfer between donor and acceptor liposomes, 37° C., one hour.
T1 construct: the purified MTP was used for the test; from tissue; host or cells: bovine liver
T1 sequence (P55156 12-887): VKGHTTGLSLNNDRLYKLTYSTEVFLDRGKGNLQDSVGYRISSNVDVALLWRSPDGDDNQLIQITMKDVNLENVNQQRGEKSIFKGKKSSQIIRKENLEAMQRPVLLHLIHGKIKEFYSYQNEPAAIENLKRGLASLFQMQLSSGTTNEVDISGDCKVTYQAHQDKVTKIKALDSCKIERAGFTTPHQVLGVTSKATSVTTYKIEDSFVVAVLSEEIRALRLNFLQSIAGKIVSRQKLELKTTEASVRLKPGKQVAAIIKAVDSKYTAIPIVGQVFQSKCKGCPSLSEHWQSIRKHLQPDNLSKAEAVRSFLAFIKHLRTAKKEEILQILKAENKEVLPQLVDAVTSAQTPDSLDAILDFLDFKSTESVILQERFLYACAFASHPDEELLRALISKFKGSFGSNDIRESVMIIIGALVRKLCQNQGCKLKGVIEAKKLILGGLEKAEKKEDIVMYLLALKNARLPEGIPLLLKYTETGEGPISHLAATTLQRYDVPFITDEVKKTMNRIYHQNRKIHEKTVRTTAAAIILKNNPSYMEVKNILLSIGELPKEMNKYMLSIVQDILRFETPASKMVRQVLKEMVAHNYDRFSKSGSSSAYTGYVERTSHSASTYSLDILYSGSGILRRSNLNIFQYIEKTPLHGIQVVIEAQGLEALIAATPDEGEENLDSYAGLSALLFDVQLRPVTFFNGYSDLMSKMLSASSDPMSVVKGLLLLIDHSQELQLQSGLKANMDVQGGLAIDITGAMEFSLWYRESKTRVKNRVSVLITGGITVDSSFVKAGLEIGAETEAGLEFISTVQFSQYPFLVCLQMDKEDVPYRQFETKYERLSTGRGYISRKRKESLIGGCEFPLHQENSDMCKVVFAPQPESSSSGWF
T1 sequence (P05307 21-510 partner): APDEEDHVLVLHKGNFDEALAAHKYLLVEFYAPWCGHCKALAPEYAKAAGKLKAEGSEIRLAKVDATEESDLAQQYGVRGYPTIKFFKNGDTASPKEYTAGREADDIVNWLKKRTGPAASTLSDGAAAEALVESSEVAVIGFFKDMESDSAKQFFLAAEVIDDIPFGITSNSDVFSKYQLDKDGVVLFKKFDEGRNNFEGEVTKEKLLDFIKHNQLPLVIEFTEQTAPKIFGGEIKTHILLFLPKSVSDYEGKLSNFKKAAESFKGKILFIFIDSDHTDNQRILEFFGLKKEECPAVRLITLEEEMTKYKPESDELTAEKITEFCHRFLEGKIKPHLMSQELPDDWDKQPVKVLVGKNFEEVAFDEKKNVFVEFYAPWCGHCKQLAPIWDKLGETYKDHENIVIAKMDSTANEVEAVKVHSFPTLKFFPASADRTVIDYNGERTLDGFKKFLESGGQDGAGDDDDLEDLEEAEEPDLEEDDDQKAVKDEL
Type: biochemical
Method: Microsomal triglyceride transfer protein (MTP) from bovine liver was partially purified in such a way described below. A buffer (50 mM Tris, 250 mM sucrose, 1 mM EDTA, 0.02% NaN3 (pH 7.4)) for making a homogenate preparation was added to bovine liver, and the mixture was homogenated under ice-cooling, then centrifuged at 10,000×g (4° C., 30 minutes) The supernatant was adjusted to pH 5.1 with hydrochloric acid, and stirred for 30 minutes. The solution was further centrifuged at 10,000×g (4° C., 30 minutes), and 1 mM Tris buffer was added to the precipitated residue, and the mixture was adjusted to pH 8.6 with sodium hydroxide. After addition of 2.7 M ammonium sulfate solution, the mixture was stirred for 30 minutes, then centrifuged at 10,000×g (4° C., 40 minutes). The resulting supernatant was served as a crude extraction fraction of MTP and stored at −80° C. under freezing. In its practical use, the crude extraction fraction of MTP was purified by column chromatography on diethylaminoethyl (DEAE) Sepharose using FPLC (Fast Performance Liquid Chromatography) system, and the purified MTP was used for the test.
Small unilamellar-vesicle (SUV) liposome (donor, 0.25 mol % triolein, 5 mol % cardiolipin) labeled with ^14C-triolein and non-labeled SUV liposome (acceptor, 0.25 mol % triolein) were prepared. A fixed amount of donor and acceptor, and MTP were mixed with a sample dissolved in DMSO or with DMSO. The mixture was incubated in a 15 mM Tris hydrochloride buffer (pH 7.4) containing 40 mM sodium chloride, 1 mM EDTA (ethylenediaminetetraacetic acid), 0.02% NaN3 and 0.5% bovine serum albumin at 37° C. for one hour. After completion of the incubation, a suspension of DEAE cellulose (50% v/v) in 15 mM Tris hydrochloride buffer (pH 7.4) was added to the above solution, and the mixture was centrifuged to separate the donor and the acceptor. The radioactivity in the acceptor was measured by liquid scintillation counter. The value obtained by subtracting the radioactivity in the blank from the amount of radioactivity in the acceptor of a DMSO group was determined as MTP-mediated TG transfer activity, and it was compared with the value obtained by subtracting the radioactivity in the blank from the radioactivity in a sample group. The blank was prepared by adding 15 mM Tris-HCl buffer (pH 7.4) in place of MTP. Inhibition rate (%) was calculated from the values obtained according to the following equation.
Inhibition rate (%)=100×(1 minus ((radioactivity of sample group minus radioactivity of blank group)/(radioactivity of DMSO group minus radioactivity of blank group))). 50% Inhibition rate (IC50) was determined on the basis of the above equation.

pIC50	Structure (SMILES)
> 8.00	CCOC(=O)C(COC(=O)Oc1c(F)cc(NC(=O)c2ccccc2-c2ccc(C(F)(F)F)cc2)c(OCC)c1F)(C(=O)OCC)c1cccs1 [Example 2-51]
> 8.00	CCOC(=O)C(COC(=O)Oc1c(F)cc(NC(=O)c2ccccc2-c2ccc(C(F)(F)F)cc2)c(OC(C)C)c1F)(C(=O)OCC)c1cccs1 [Example 2-52]
> 8.00	CCOC(=O)C(CCC(=O)Oc1ccc(NC(=O)c2ccccc2-c2ccc(C(F)(F)F)cc2)c(C(=O)N(C)C)c1)(C(=O)OCC)c1ccccc1 [Example 3, 2-Ethoxycarbonyl-2-phenylpentanedioic acid 5-{3-dimethylcarbamoyl-4-[(4′-trifluoromethylbiphenyl-2-carbonyl)amino]phenyl}ester 1-ethyl ester]
> 8.00	CCOC(=O)C(CCC(=O)Oc1cc(C(=O)N(C)C)c(NC(=O)c2ccccc2-c2ccc(C(F)(F)F)cc2)cc1F)(C(=O)OCC)c1ccccc1 [Example 3-6]
> 8.00	CCOC(=O)C(CCC(=O)Oc1c(F)cc(NC(=O)c2ccccc2-c2ccc(C(F)(F)F)cc2)c(C(=O)N(C)C)c1F)(C(=O)OCC)c1ccccc1 [Example 3-9]
> 8.00	CCOC(=O)C(CCC(=O)Oc1c(F)cc(NC(=O)c2ccccc2-c2ccc(C(F)(F)F)cc2)c(C(=O)NC)c1F)(C(=O)OCC)c1ccccc1 [Example 3-10]
6.00 to 7.00	CCNC(=O)C(CCCCC(=O)Oc1c(F)cc(NC(=O)c2ccccc2-c2ccc(C(F)(F)F)cc2)c(C(=O)N(C)C)c1F)(C(=O)NCC)c1cccs1 [Example 3-15]
7.00 to 8.00	CCNC(=O)C(CCCC(=O)Oc1c(F)cc(NC(=O)c2ccccc2-c2ccc(C(F)(F)F)cc2)c(C(=O)N(C)C)c1F)(C(=O)NCC)c1cccs1 [Example 3-17]
7.00 to 8.00	CCN(C)C(=O)C(CCC(=O)Oc1c(F)cc(NC(=O)c2ccccc2-c2ccc(C(F)(F)F)cc2)c(C(=O)N(C)C)c1F)(C(=O)N(C)CC)c1ccccc1 [Example 3-18]
> 8.00	CCOC(=O)C(CCC(=O)Oc1c(F)cc(NC(=O)c2ccccc2-c2ccc(C(F)(F)F)cc2)c(C(=O)N(C)C)c1F)(C(=O)OCC)c1cccs1 [Example 3-20]
> 8.00	CCOC(=O)C(CCC(=O)Oc1c(F)cc(NC(=O)c2ccc(C)cc2-c2ccc(C(F)(F)F)cc2)c(C(=O)N(C)C)c1F)(C(=O)OCC)c1cccs1 [Example 3-21]
> 8.00	CCOC(=O)C(CCC(=O)Oc1c(F)cc(NC(=O)c2ccc(C)cc2-c2ccc(C(F)(F)F)cc2)c(C(=O)N(C)C)c1F)(C(=O)OCC)c1ccccc1 [Example 3-22]

Continued, compound first:

Structure (SMILES)	pIC50
CCOC(=O)C(COC(=O)Cc1ccc(NC(=O)c2ccccc2-c2ccc(C(F)(F)F)cc2)c(OC(=O)CC)c1)(C(=O)OCC)c1ccccc1 [Example 1-2]	> 8.00
CCNC(=O)C(COCCC(=O)Oc1ccc(NC(=O)c2ccccc2-c2ccc(C(F)(F)F)cc2)c(C(=O)N(C)C)c1)(C(=O)NCC)c1ccccc1 [Example 3-3, 3-(2,2′-Bisethylcarbamoyl-2-phenylethoxy)propionic acid 3-dimethylcarbamoyl-4-[(4′-trifluoromethylbiphenyl-2-carbonyl)amino]phenyl ester]	> 8.00
CCOC(=O)C(CC(=O)Oc1ccc(NC(=O)c2ccccc2-c2ccc(C(F)(F)F)cc2)c(C(=O)N(C)C)c1)(C(=O)OCC)c1ccccc1 [Example 3-4]	> 8.00
CCOC(=O)C(CC(=O)OCc1ccc(NC(=O)c2ccccc2-c2ccc(C(F)(F)F)cc2)c(C(=O)N(C)C)c1)(C(=O)OCC)c1ccccc1 [Example 3-5]	> 8.00
CCOC(=O)C(CCC(=O)OCc1ccc(NC(=O)c2ccccc2-c2ccc(C(F)(F)F)cc2)c(C(=O)N(C)C)c1)(C(=O)OCC)c1ccccc1 [Example 3-7]	> 8.00
CCOC(=O)C(CCC(=O)Oc1ccc(N(C)C(=O)c2ccccc2-c2ccc(C(F)(F)F)cc2)c(C(=O)N(C)C)c1)(C(=O)OCC)c1ccccc1 [Example 3-8]	> 8.00
CCNC(=O)C(COCC(=O)Oc1ccc(NC(=O)c2ccccc2-c2ccc(C(F)(F)F)cc2)c(C(=O)N(C)C)c1)(C(=O)NCC)c1ccccc1 [Example 3-12]	> 8.00
CCNC(=O)C(COCCC(=O)Oc1c(F)cc(NC(=O)c2ccccc2-c2ccc(C(F)(F)F)cc2)c(C(=O)N(C)C)c1F)(C(=O)NCC)c1ccccc1 [Example 3-16]	> 8.00
CCN(C)C(=O)C(CCCC(=O)Oc1c(F)cc(NC(=O)c2ccccc2-c2ccc(C(F)(F)F)cc2)c(C(=O)N(C)C)c1F)(C(=O)N(C)CC)c1ccccc1 [Example 3-19]	6.00 to 7.00
CCOC(=O)C(CC(=O)OCc1ccc(NC(=O)c2ccccc2-c2ccc(C(F)(F)F)cc2)c(C(=O)N(C)C)c1)(C(=O)OCC)c1ccccn1 [Example 3-23]	> 8.00
CCNC(=O)C(COCC(=O)OCc1ccc(NC(=O)c2ccccc2-c2ccc(C(F)(F)F)cc2)c(C(=O)N(C)C)c1)(C(=O)NCC)c1ccccc1 [Example 3-24]	> 8.00
